Test results as given in patent US8193192B2, “Heterocyclic FXR binding compounds” (Phenex Pharmaceuticals AG, priority 2006, dated 2012).
≈ marks a conversion by molar mass, not a printed value.

Columns and labels:
[1] = PAMPA permeability assay; type: in vitro ADME; settings: % of compound found in the receiver compartment after 16 hours; PBS pH 7.4, 5% DMSO, 23° C.
Experimental: Artificial membrane permeability was determined as follows: Tested compounds were dissolved to 10 mM in 100% DMSO. Permeability of compounds was measured in PBS (pH 7.4), 5% DMSO at 23° C. Safire (Tecan) plate reader was used for measurement the UV/Vis absorption. Protocol: Dilute stocks of tested compounds and controls with PBS to 1.67 mM and mix well by pipetting, add 280 μl of PBS, 5% DMSO to acceptor plate, add 5 μl of 2% L-α-Phosphatidylcholine suspension in dodecane to the membrane of donor plate. Immediately add 98 μl of PBS to donor plate and make the sandwich with acceptor plate. Add 42 μl of tested compounds and controls dilutions to […], cover the plate, place into camera and incubate for 16 hours. Make the equilibrium plate, add 225 μl of PBS, 3.7% DMSO and 25 μl of tested compounds and controls dilutions to UV plate. After 16 hours pull the donor plate out and transfer 250 μl from acceptor plate to UV plate. Scan UV plate on Safire (Tecan) plate reader from […]. Permeability is reported in % of compound found in the receiver compartment after the incubation period. Applying this protocol, PAMPA permeabilities of examples and reference compounds were determined as follows (see Table 4): […]

[2] = biological target: T1, human farnesoid X receptor (FXR) alpha ligand binding domain (Homo sapiens, UniProt Q96RI1); assay: FRET activity assay (ligand mediated cofactor peptide interaction, LANCE); type: biochemical; settings: FXR-LBD/SRC-1 peptide interaction
T1 construct: made in house; host or cells: E. coli BL21(DE3), vector pDEST15
T1 sequence (Q96RI1 187-472 isoform Q96RI1-2): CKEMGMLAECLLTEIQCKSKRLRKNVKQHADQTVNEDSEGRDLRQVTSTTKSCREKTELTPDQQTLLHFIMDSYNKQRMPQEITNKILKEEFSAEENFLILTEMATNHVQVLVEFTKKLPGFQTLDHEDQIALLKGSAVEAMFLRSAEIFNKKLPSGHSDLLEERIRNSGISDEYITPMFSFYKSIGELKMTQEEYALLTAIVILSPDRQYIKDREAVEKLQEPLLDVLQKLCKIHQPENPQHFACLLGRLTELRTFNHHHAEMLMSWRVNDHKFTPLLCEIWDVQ
Experimental: Determination of a ligand mediated cofactor peptide interaction to quantify ligand binding to the nuclear receptor Farnesoid X Receptor (FXR) was performed as follows:
Preparation of human farnesoid X receptor (FXR) alpha ligand binding domain: The human FXRalpha ligand binding domain (LBD) was expressed in E. coli strain BL21(DE3) as an N-terminally glutathione-S-transferase (GST) tagged fusion protein. The DNA encoding the FXR ligand binding domain was cloned into vector pDEST15 (Invitrogen). Expression was under control of an IPTG inducible T7 promoter. The amino acid boundaries of the ligand binding domain were amino acids 187-472 of Database entry NM_005123 (RefSeq). Expression and purification of the FXR-LBD: An overnight preculture of a transformed E. coli strain was diluted 1:20 in LB-Ampicillin medium and grown at 30° C. to an optical density of OD600=0.4-0.6. Gene expression was then induced by addition of 0.5 mM IPTG. Cells were incubated an additional 6 h at 30° C., 180 rpm. Cells were collected by centrifugation (7000×g, 7 min, room temperature). Per liter of original cell culture, cells were resuspended in 10 ml lysis buffer (50 mM Glucose, 50 mM Tris pH 7.9, 1 mM EDTA and 4 mg/ml lysozyme) and left on ice for 30 min. Cells were then subjected to sonication and cell debris removed via centrifugation (22000×g, 30 min, 4° C.). Per 10 ml of supernatant 0.5 ml prewashed Glutathione 4B sepharose slurry (Qiagen) was added and the suspension kept slowly rotating for 1 h at 4° C. Glutathione 4B sepharose beads were pelleted by centrifugation (2000 g, 15 sec, 4° C.) and washed twice in wash buffer (25 mM Tris, 50 mM KCl, 4 mM MgCl2 and 1 M NaCl). The pellet was resuspended in 3 ml elution buffer per liter of original culture (elution buffer: 20 mM Tris, 60 mM KCl, 5 mM MgCl2 and 80 mM glutathione added immediately prior to use as powder). The suspension was left rotating for 15 min at 4° C., the beads pelleted and eluted again with half the volume of elution buffer than the first time. The eluates were pooled and dialysed overnight in 20 mM Hepes buffer (pH 7.5) containing 60 mM KCl, 5 mM MgCl2 as well as 1 mM dithiothreitol and 10% (v/v) glycerol. The protein was analysed by SDS-Page.
The method measures the ability of putative ligands to modulate the interaction between the purified bacterial expressed FXR ligand binding domain (LBD) and a synthetic biotinylated peptide based on residues 676-700 of SRC-1 (LCD2, 676-700). The sequence of the peptide used was B-[…]-COOH where the N-terminus was biotinylated (B). The ligand binding domain (LBD) of FXR was expressed as fusion protein with GST in BL-21 cells using the vector pDEST15. Cells were lysed by sonication, and the fusion proteins purified over glutathione sepharose (Pharmacia) according to the manufacturers instructions. […] For ease of handling and reduction of background from compound fluorescence LANCE technology makes use of generic fluorophore labels and time resolved detection Assays were done in a final volume of 25 μl in a 384 well plate, in a Tris-based buffer (20 mM Tris-HCl pH 7.5; 60 mM KCl, 5 mM MgCl2; 35 ng/μl BSA), containing 20-60 ng/well recombinantly expressed FXR-LBD fused to GST, 200-600 nM N-terminally biotinylated peptide, representing SRC1 aminoacids 676-700, 200 ng/well Streptavidin-xIAPC conjugate (Prozyme) and 6-10 ng/well Eu W1024-antiGST (Perkin Elmer). […]

[3] = Aqueous solubility assay, Protocol A, nephelometry method; type: physicochemical; settings: PBS with 5% DMSO, aqueous with cosolvent or surfactant or cyclodextrin, kinetic from dmso stock, PBS pH 7.4, 5% DMSO, 23° C.
Experimental: (§1) Aqueous solubility of compounds was determined by nephelometry or by shake-flask method as follows:
Protocol A, Nephelometry Method:
Solubility of compounds was measured in PBS (pH 7.4), 5% DMSO at 23° C. Nepheloskan Ascent (Thermo Electron Corporation) nephelometer was used for measurement of light scattering. Tested compounds were dissolved in DMSO to 10 mM. Prior to measurement the compounds were further diluted with PBS in the wells to final compound concentrations of 100, 70, 50, 35, 25, 17, 12 and <10 μg/ml.
The plates were incubated at room temperature for 24 hours to reach equilibrium and the scattered light was measured. Assay validation: Aqueous solubility of acetylsalicylic acid was determined to validate the assay. […] Aqueous solubilities of examples and reference compounds are listed below in Table 2.

[4] = Aqueous solubility assay, Protocol B, shake-flask method; type: physicochemical; settings: 10 mM PBS buffer with 1% MeOH, kinetic from dmso stock, 10 mM PBS buffer pH 7.4, 1% MeOH, room temperature, read-out: Aqueous solubility pH 7.4 (μM) (±standard deviation), shake-flask method
Experimental: as §1
Protocol B, Shake-Flask Method:
Sample preparation: Sample and standard solution preparation is performed by mixing equal volumes of acetonitrile containing the internal standard (1 μM final concentration) with sample and calibration standard solutions (100 μl). After vigorously shaking (10 seconds) the samples are centrifuged (6000 g) for 5 minutes at 20° C. Aliquots of the particle-free supernatants are transferred to 200 μl sample vials and subsequently subjected to LC-MS/MS analysis. Assay procedure: Test concentration was 100 μM in 10 mM PBS buffer pH 7.4 with a final MeOH concentration of 1%. The volume of the incubation solution was 500 μl. Depending on each compound's solubility in MeOH, the stock concentration and the incubation concentration was adapted. The test solutions in quadruplicates were shaken at 300 rpm over a 20 hours period at room temperature, followed by centrifugation at 20000 g for 30 minutes to separate the solid phase. 100 μl of particle free sample are added to 100 μl acetonitrile containing the internal standard. The aqueous solubility of the compounds was determined by measuring the concentration of the PBS buffer supernatant by HPLC-MS/MS. Aqueous solubilities of examples and reference compounds are listed below in Table 3.

[5] = Microsomal stability assay; type: in vitro ADME; settings: pH 7.4; mouse liver microsomes, 37° C.
Experimental: Microsomal Stability Assay
In vitro assays were performed to evaluate the metabolic stability of test items in liver microsomes originating from mouse. Preparation of working standards of test items: Working solutions were prepared for each calibration level by appropriate dilution of the corresponding stock solution, depending on each compound's solubility in acetonitrile or acetonitrile/water. Calibration standards were prepared by spiking 196 μl standard matrix with 4 μl of the corresponding working solution. The standard matrix consists of 0.15 mg/ml of microsomal protein in phosphate buffer (100 mM pH 7.4), the final standard solutions contain 2% acetonitrile. The samples and standard solutions were extracted with ethyl acetate, isolation of the compounds was performed by addition of 600 μl ethyl acetate containing the internal standard (0.1 μM) to 200 μl sample and calibration standard. After vigorously shaking (10 minutes) and centrifugation (5000 g) the aqueous phase was separated by freezing in an acetone/dry ice bath and the organic phase is evaporated to dryness using a vacuum centrifuge. Samples were reconstituted in 200 μl acetonitrile/water mix (1:1 v/v) and subsequently subjected to LC-MS/MS. The incubation solution (180 μl) consisted of 90 μl of a microsomal suspension of 0.33 mg/ml of protein in phosphate buffer 100 mM pH 7.4 and 90 μl NADP-regenerating system. The reaction was initiated by the addition of 20 μl of test compound (in 20% acetonitrile) to the preincubated microsomes/buffer mix at 37° C. 200 μl samples were removed from the incubation after 0, 5, 10, and 30 minutes and processed for ethyl acetate extraction as described above. Negative controls using boiled microsomes (boiling water bath, 25 minutes) without regenerating system were run in parallel. The amount of compound in the samples is expressed as percentage of remaining compound compared to time point zero (=100%). These percentages were plotted against the corresponding time points. Intrinsic clearance (CLint) and half-life (t1/2) estimates were determined using the rate of parent disappearance and following formula (1) and (2). (1) CLint=(−k)×V×fu. (2) t1/2=ln 2/−k. Where CLint=intrinsic clearance [μl/min/mg protein], t1/2=half life [min], k=slope from the linear regression of log [test compound] versus time plot [1/min]. V=6666.7; fu=unbound fraction in the blood. Applying this protocol gave microsomal stabilities for examples and reference compounds as listed below in Table 6: […]

[6] = The Merck index, 10th edition; cited from earlier work

PAMPA Permeability [1]	EC50 [2]	SMILES	other results
7%		CC(C)c1onc(-c2c(Cl)cccc2Cl)c1COc1ccc(/C=C/c2cccc(C(=O)O)c2)c(Cl)c1 [Compound B, reference compound]	
	≤ 1000 nM	CC(C)c1onc(-c2c(Cl)cccc2Cl)c1COc1ccc(Oc2ccc(C(=O)O)cc2)nn1 [Example 5, 4-(6-((3-(2,6-Dichlorophenyl)-5-isopropylisoxazol-4-yl)methoxy)pyridazin-3-yloxy)benzoic acid]	

The next lines start with the molecule.

SMILES	PAMPA Permeability [1]	EC50 [2]	other results
CC(C)c1onc(-c2c(Cl)cccc2Cl)c1COc1ccc(Oc2ccc(C(=O)O)cc2)cn1 [Example 1, 4-(6-((3-(2,6-Dichlorophenyl)-5-isopropylisoxazol-4-yl)methoxy)pyridin-3-yloxy)benzoic acid]	54%	≤ 1000 nM	solubility at 24 h [3]: > 200 µM
CC(C)c1onc(-c2c(Cl)cccc2Cl)c1COc1ccc(Oc2cccc(C(=O)O)c2)cn1 [Example 2, 3-(6-((3-(2,6-Dichlorophenyl)-5-isopropylisoxazol-4-yl)methoxy)pyridin-3-yloxy)benzoic acid]	43%	≤ 1000 nM	
CC(C)c1onc(-c2c(Cl)cccc2Cl)c1COc1ccc(Oc2ccc(C(=O)NS(C)(=O)=O)cc2)cn1 [Example 4, 4-(6-((3-(2,6-Dichlorophenyl)-5-isopropylisoxazol-4-yl)methoxy)pyridin-3-yloxy)-N-(methylsulfonyl)benzamide]		≤ 1000 nM	melting point: 182 to 184 °C; solubility at 20 h [4]: 114 µM (≈ 65.7 µg/mL); half-life [5]: 30 min; microsomal CLint [5]: 153 µL/min/mg
CC(=O)Oc1ccccc1C(=O)O [acetylsalicylic acid]			Aqueous solubility, reported literature value [6]: at least 2.17 mg/ml
